From patent US7030251B2, “Modifications of the trometamol salt of R-thioctic acid as well as a process for their production” (Viatris GmbH & Co KG, priority 2001, dated 2006)
Where a name gives a salt, the structure may show the parent alone.

Test: Angle of repose α as a measure of flowability and pourability
Format: physicochemical
Settings: determined according to R. Voigt, Lehrbuch der pharmazeutischen Technologie, 3rd Edition 1979, p. 165
From the text: The angle of repose α of the modifications as a measure of the flowability and pourability is likewise different: [table]

SMILES	Angle of Repose α [°]
O=C(O)CCCC[C@@H]1CCSS1 [Modification B, trometamol salt of R-thioctic acid]	32
O=C(O)CCCC[C@@H]1CCSS1 [Modification mixture A/B = 1:1, trometamol salt of R-thioctic acid]	34
O=C(O)CCCC[C@@H]1CCSS1 [Modification A, trometamol salt of R-thioctic acid]	46
